Results reported in patent US12383579B2, “Materials and methods of using an inhibitor of plasminogen activation to treat anastomotic leak” (THE UNIVERSITY OF CHICAGO, priority 2018, dated 2025).

Legend:
RAW macrophages = test: Collagen degradation by RAW macrophages given RAW/E44s conditioned media; format: cell-based, murine; conditions: TXA 10 mM, PLG 250 nm, MMP9 1 nM, 4 hours
Method: FIG. 16. […] (A), E. faecalis E44 was grown in TY media overnight, and cell-free conditioned media (E44s) was applied to RAW macrophages for 4 hours. PLG, 250 nm, was included in the reaction. […] PLG activation was measured by fluorogenic substrate cleavage. “RAW” column is naïve RAW. *p<0.05, n=6/group. (B), Conditioned media after co-interaction of macrophages with E. faecalis E44 (named RAW/E44s) was applied to naïve RAW macrophages for 4 hours. PLG, 250 nm, and MMP9, 1 nM, were in all reactions. […] “RAW+RAWs” column is naïve macrophages incubated with conditioned media of RAW macrophages (no E. faecalis E44). *p<0.05, n=6/group.
It was then tested whether macrophage collagen degradation activity is enhanced by stimulation with E. faecalis. Conditions from the above experiment (RAW/E44 s) with naïve RAW macrophages were used. PLG and MMP9 were included in the reaction. Degradation of collagen was enhanced by secreted factors produced during the co-interaction of RAW and E44s. […] Finally, to investigate the mechanism of PLG activation by E. faecalis, a parent collagenolytic strain isolated from a patient with AL (V583) was used, along with its mutant derivative (DDGelE/Spr) with secretory collagenolytic factors serine protease (Spr) and gelatinase (GelE) genetically removed. […]

E. faecalis = test: Intrinsic bacterial type IV collagen degradation in the absence of PLG; format: biochemical, Enterococcus faecalis
Method: Collagen degradation. Assays were performed per the manufacturer's instructions as previously described with slight modifications (51′). Bacteria were grown overnight in TY. Optical density was normalized to 0.1 through dilution. Bacteria were then incubated with fluorescein-labeled type I collagen, type IV collagen, or gelatin according to the manufacturer's instructions (ThermoFisher), human PLG at 250 nM and TXA. Total reaction volume was 200 L. The incubation proceeded at 37° C. for 5 hours to allow for bacterial attachment to collagen and PLG binding. uPA was added and the incubation proceeded for an additional hour. Change in fluorescence over time at 480/520 nm was determined kinetically over the initial 30 minutes of the reaction.

[1] = molecular target: T1, P. aeruginosa MPAO1-P2 plasminogen activation (Homo sapiens, UniProt P00747); test: PLG activation by P. aeruginosa; format: biochemical; conditions: TY 1:1 with PBS (10 mM phosphate), or water plus 10 mM TXA, versus water alone
T1 construct: 250 nM human glu-plasminogen (Haematologic technologies); purchased Haematologic technologies
Method: Plasminogen/uPA activity. Plasmin activity assays were performed as previously described with minor modifications, and fluorescence data was analyzed per the manufacturer's instructions (50′). Incubation times were optimized for bacteria at low optical density to limit internal filter effects in fluorescence-based assays. Bacteria (when included) were grown overnight in TY media. OD600 was normalized by dilution to 0.1, equivalent to 8×10^7 CFU/mL. Samples at OD 0.1 were diluted 1:10 in the final reaction through the addition of media and dissolved substrates. Bacteria were incubated with 250 nM human glu-plasminogen (Haematologic technologies) for two hours at 37° C. TXA (Fisher) was added concomitantly with PLG. A final concentration of 4 nM uPA (Biovision) or pro-uPA (Biovision) was added and incubation proceeded for 20 minutes. A final concentration of 6 M fluorogenic substrate specific for plasmin (H-D-Val-Leu-Lys-AFC, AnaSpec) was added immediately prior to a kinetic fluorescent read with excitation wavelength 380 nm and emission wavelength 500 nm. Reads were conducted every 15 to 30 seconds over the course of 30 minutes. For assays of uPA activity, PLG was omitted from the incubation and a substrate specific to uPA (Z-Gly-Gly-Arg-AMC, Bachem) was used. When assays were performed in human plasma, fluorescence was read for 120 minutes total. […]

[2] = tested on: E. faecalis V583 and FITC-PLG at the anastomotic site; test: Co-localization of E. faecalis and PLG at the anastomotic site; format: in vivo, mice; conditions: TXA enema POD 1, 2, 3; POD3
Text: Co-localization of E. faecalis and PLG: Mice underwent anastomotic surgery with postoperative introduction of E. faecalis V583. The mice received post-operative TXA or vehicle enemas as described herein. They received a systemic (intra-peritoneal) injection of 100 L 4 M FITC-labeled PLG one hour prior to sacrifice. Anastomotic tissue was collected in sterile fashion and cryosectioned. Slides were stained with 4′,6-diamidino-2-phenylindole (DAPI) for colonic mucosa. For visualization of microbial organisms, the inventors used probes designed by Miacom Diagnostics, which use a fluorescence in situ hybridization (FISH) beacon-based technology. An E. faecalis-specific probe was labeled with Alexa Fluor 647. Staining was performed overnight per the manufacturer's protocol. Confocal microscopy was performed on a Leica SP5 II AOBS tandem scanner spectral confocal system on a DMI6000 microscope and controlled by LASAF software (version 2.8.3). […] channels were collected at each location using sequential excitation (excitation: 405, 488, and 633; emission: 412-452, 495-537, and 654-755 nm pass bands) on either photomultiplier or HyD hybrid detectors. […]
Co-localization of E. faecalis and plasminogen at the anastomotic site. […] Mice undergoing E. faecalis-mediated anastomotic leak were administered FITC-labeled PLG (as observed by green fluorescence) systemically. […]

[3] = tested on: collagenolytic E. faecalis; test: Quantitative culture of collagenolytic E. faecalis after V583-induced AL

T1 sequence (P00747 20-810): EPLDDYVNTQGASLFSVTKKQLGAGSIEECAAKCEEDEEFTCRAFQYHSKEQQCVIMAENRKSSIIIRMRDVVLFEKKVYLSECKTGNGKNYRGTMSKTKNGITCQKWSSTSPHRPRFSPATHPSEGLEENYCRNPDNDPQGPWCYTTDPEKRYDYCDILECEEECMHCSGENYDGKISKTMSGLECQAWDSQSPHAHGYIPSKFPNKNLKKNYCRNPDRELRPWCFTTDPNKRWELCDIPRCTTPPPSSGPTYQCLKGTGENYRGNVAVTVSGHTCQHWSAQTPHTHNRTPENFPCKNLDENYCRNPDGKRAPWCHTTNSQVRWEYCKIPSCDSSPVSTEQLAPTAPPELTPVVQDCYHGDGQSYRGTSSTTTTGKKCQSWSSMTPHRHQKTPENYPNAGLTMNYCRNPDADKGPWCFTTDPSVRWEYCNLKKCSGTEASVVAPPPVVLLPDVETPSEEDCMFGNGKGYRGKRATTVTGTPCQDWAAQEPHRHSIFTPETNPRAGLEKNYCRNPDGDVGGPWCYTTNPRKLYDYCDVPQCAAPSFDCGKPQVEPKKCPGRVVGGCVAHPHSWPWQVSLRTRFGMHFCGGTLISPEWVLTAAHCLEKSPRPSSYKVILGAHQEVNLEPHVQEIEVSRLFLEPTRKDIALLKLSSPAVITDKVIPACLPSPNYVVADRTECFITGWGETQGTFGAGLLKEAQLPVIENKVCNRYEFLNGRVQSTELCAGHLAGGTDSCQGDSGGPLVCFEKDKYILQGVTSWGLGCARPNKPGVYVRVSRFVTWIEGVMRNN

For `NC[C@H]1CC[C@H](C(=O)O)CC1` [TXA, tranexamic acid], which “collagen degradation by macrophages given RAW/E44s conditioned media” value (RAW macrophages) is on record?
Its value is “attenuated”.

And the “intrinsic bacterial type IV collagen degradation activity” value (E. faecalis)?
Its value is “no effect”.

What about the “PLG activation by P. aeruginosa” value [1] of the same compound?
Its value is “significantly attenuated”.

And the “PLG activation by P. aeruginosa” value ([1]; listed as Tranexamic acid)?
Its value is “inhibits”.

And the “co-localization of V583 with FITC-PLG at the anastomotic site” value [2]?
The value was “effectively prevented co-localization”.

What about the “penetration of V583 into the colonic mucosa” value [2] of the same compound?
The value was “diminished penetration of V583 into the colonic mucosa”.

What about the “collagenolytic E. faecalis in anastomotic luminal contents” value ([3]; POD 3, versus water enema) of the same compound?
Its value is “significantly decreased”.

And the “CFU/mg collagenolytic E. faecalis in anastomotic tissue” value ([3]; POD 8, versus water enema)?
The value was “significantly fewer”.

And the “collagenolytic E. faecalis in anastomotic luminal contents” value ([3]; POD 8, versus water enema)?
The value was “persisted but did not reach statistical significance”.

What about the “CFU/mg collagenolytic E. faecalis in anastomotic tissue” value ([3]; day 3, versus water enema) of the same compound?
The value was “no difference was observed”.
